ChEMBL document CHEMBL4428064, “Discovery and antiparasitic activity of AZ960 as a Trypanosoma brucei ERK8 inhibitor” (Bioorg Med Chem, 2016)

Experiments:
Trypanosoma brucei [1] = assay: Antiparasitic activity against bloodstream form of Trypanosoma brucei 221 infected in mouse VSMC assessed as reduction in parasitic proliferation after 48 hrs by cell titer-glo based assay; type: functional, organism-based; conditions: Trypanosoma brucei, 221, VSMC
Trypanosoma brucei [2] = assay: Antiparasitic activity against bloodstream form of Trypanosoma brucei 221 infected in mouse VSMC assessed as parasitic proliferation at 1 uM after 48 hrs by luciferase reporter gene assay; type: functional
Trypanosoma brucei [3] = assay: Antiparasitic activity against bloodstream form of Trypanosoma brucei 221 infected in mouse VSMC assessed as reduction in log10 RLU at 1 uM after 48 hrs by luciferase reporter gene assay; type: functional
[4] = Selectivity ratio of IC50 for mouse vSMC to IC50 for bloodstream form of Trypanosoma brucei 221; type: toxicity; conditions: read-out: Ratio IC50
[5] = Cytotoxicity against mouse VSMC assessed as cell growth inhibition
[6] = target: Tyrosine-protein kinase JAK2 (Homo sapiens, UniProt O60674, V617F); assay: Inhibition of JAK2 V617F mutant (unknown origin) using L-Ahx-IPTSPITTTYFFFKKK-COOH as substrate in presence of ATP
Sequence of Tyrosine-protein kinase JAK2 (O60674 whole entry V617F): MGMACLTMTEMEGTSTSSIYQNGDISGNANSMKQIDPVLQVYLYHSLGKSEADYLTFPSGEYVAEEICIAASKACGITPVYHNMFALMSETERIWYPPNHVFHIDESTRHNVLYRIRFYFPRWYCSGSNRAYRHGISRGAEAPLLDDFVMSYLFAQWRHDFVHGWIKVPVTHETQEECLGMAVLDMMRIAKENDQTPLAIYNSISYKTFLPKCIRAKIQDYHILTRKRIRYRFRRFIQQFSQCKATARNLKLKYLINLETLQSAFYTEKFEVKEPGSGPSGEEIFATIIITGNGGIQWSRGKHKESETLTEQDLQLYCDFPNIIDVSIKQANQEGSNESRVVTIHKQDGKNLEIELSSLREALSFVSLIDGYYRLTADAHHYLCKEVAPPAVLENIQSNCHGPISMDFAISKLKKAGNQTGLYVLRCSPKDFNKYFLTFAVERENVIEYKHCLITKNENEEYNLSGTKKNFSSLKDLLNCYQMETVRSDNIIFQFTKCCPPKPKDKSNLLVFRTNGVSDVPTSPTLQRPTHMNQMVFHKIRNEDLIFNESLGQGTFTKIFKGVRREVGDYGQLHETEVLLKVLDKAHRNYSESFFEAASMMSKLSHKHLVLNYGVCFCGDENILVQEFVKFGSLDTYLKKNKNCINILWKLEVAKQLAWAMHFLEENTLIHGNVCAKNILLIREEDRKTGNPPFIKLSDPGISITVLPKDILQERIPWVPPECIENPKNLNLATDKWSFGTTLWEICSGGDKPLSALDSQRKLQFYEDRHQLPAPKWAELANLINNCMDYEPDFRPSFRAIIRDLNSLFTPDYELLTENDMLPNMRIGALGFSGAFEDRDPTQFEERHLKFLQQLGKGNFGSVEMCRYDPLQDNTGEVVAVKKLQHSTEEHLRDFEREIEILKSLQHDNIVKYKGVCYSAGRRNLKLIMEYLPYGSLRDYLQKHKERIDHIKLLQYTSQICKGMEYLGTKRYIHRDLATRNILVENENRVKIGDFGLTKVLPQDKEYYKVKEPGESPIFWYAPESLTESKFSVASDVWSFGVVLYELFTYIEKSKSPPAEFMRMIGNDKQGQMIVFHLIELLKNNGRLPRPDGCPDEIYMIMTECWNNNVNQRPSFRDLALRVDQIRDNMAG

Trypanosoma brucei [7] = assay: Inhibition of GST-tagged Trypanosoma brucei ERK8 autophosphorylation expressed in Escherichia coli using myelin basic protein as substrate after 30 mins in presence of 32P-gamma-ATP by SDS-PAGE based autoradiography
[8] = Selectivity ratio of IC50 for rat ins-1 cells to IC50 for bloodstream form of Trypanosoma brucei 221; type: toxicity; conditions: read-out: Ratio IC50
[9] = Inhibition of GST-tagged Trypanosoma brucei ERK8 expressed in Escherichia coli using recombinant myelin basic protein as substrate after 30 mins in presence of 32P-gamma-ATP by Michaelis-Menten analysis
INS1 = assay: Cytotoxicity against rat INS-1 cells assessed as cell growth inhibition; type: cell-based

Nc1ccc(-c2ccc3ncc4ccc(=O)n(-c5cccc(C(F)(F)F)c5)c4c3c2)cn1
IC50 (Trypanosoma brucei [1]): 1000 nM | Activity (Trypanosoma brucei [2]): 0.6% | reduction in log10 RLU (Trypanosoma brucei [3]): 2

Cc1cc(Nc2nc(N[C@@H](C)c3ccc(F)cc3)c(C#N)cc2F)n[nH]1
selectivity ratio [4]: 208 to 210 | IC50 ([5]; Mus musculus, VSMC): 25000 nM | inhibition (INH) ([5]; mouse): Dose-dependent effect | IC50 (Trypanosoma brucei [1]): 120 nM | Ki [6]: 0.45 nM | Activity (Trypanosoma brucei [2]): 0.26% | inhibition (Trypanosoma brucei [7]): < 20% | selectivity ratio [8]: 83 to 84 | Ki [9]: 1250 nM | IC50 (INS1; Rattus norvegicus, INS1): 10000 nM | inhibition (INH) (INS1; rat, ins1): Dose-dependent effect | reduction in log10 RLU (Trypanosoma brucei [3]): 2

O=C1c2ccccc2-c2n[nH]c3cccc1c23
IC50 (Trypanosoma brucei [1]): 570 nM | Activity (Trypanosoma brucei [2]): 0.26% | reduction in log10 RLU (Trypanosoma brucei [3]): 2

Cc1ncc(-c2ccnc(Nc3ccc(S(C)(=O)=O)cc3)n2)n1C(C)C [AZD-5438]
IC50 (Trypanosoma brucei [1]): 210 nM | Activity (Trypanosoma brucei [2]): 0.45% | inhibition (Trypanosoma brucei [7]): < 20% | reduction in log10 RLU (Trypanosoma brucei [3]): 2

COc1ccc(-c2ccc3ncc4c(c3c2)n(-c2ccc(N3CCNCC3)c(C(F)(F)F)c2)c(=O)n4C)cn1 [BGT-226 FREE BASE]
IC50 (Trypanosoma brucei [1]): 950 nM | Activity (Trypanosoma brucei [2]): 0.12% | reduction in log10 RLU (Trypanosoma brucei [3]): 2

CC(C)(C)c1cnc(CSc2cnc(NC(=O)C3CCNCC3)s2)o1 [BMS-387032]
IC50 (Trypanosoma brucei [1]): 120 nM | Activity (Trypanosoma brucei [2]): 0.36% | reduction in log10 RLU (Trypanosoma brucei [3]): 2

Cn1c(=O)n(-c2ccc(C(C)(C)C#N)cc2)c2c3cc(-c4cnc5ccccc5c4)ccc3ncc21 [DACTOLISIB]
Activity (Trypanosoma brucei [2]): 0.49% | reduction in log10 RLU (Trypanosoma brucei [3]): 2

CCc1cnn2c(NCc3ccc[n+]([O-])c3)cc(N3CCCC[C@H]3CCO)nc12 [DINACICLIB]
IC50 (Trypanosoma brucei [1]): 80 nM | Activity (Trypanosoma brucei [2]): 1.13% | reduction in log10 RLU (Trypanosoma brucei [3]): 2

CCS(=O)(=O)Nc1ccc2c(c1)/C(=C(/Nc1ccc(CN3CCCCC3)cc1)c1ccccc1)C(=O)N2 [HESPERADIN]
Activity (Trypanosoma brucei [2]): 0.27% | reduction in log10 RLU (Trypanosoma brucei [3]): 2

CNC(=O)c1nn(C)c2c1C(C)(C)Cc1cnc(Nc3ccc(N4CCN(C)CC4)cc3)nc1-2 [MILCICLIB]
IC50 (Trypanosoma brucei [1]): 610 nM | Activity (Trypanosoma brucei [2]): 0.58% | inhibition (Trypanosoma brucei [7]): < 20% | reduction in log10 RLU (Trypanosoma brucei [3]): 2

COc1ncc(-c2ccc3nccc(-c4ccnnc4)c3c2)cc1NS(=O)(=O)c1ccc(F)cc1F [OMIPALISIB]
IC50 (Trypanosoma brucei [1]): 111 nM | Activity (Trypanosoma brucei [2]): 0.21% | reduction in log10 RLU (Trypanosoma brucei [3]): 2

CC(=O)NCC(=O)N1[C@@H]2CC[C@H]1c1ccc(Nc3ncc(C(F)(F)F)c(NC4CCC4)n3)cc12 [PF-03814735]
IC50 (Trypanosoma brucei [1]): 260 nM | Activity (Trypanosoma brucei [2]): 1.16% | inhibition (Trypanosoma brucei [7]): < 20% | reduction in log10 RLU (Trypanosoma brucei [3]): 2
